The target of experiment [1] is T1, human EHMT2 913-1193 (Homo sapiens, UniProt Q96KQ7).
T1 construct: recombinant purified human EHMT2 913-1193, Viva; purchased Viva
T1 sequence (Q96KQ7 913-1193): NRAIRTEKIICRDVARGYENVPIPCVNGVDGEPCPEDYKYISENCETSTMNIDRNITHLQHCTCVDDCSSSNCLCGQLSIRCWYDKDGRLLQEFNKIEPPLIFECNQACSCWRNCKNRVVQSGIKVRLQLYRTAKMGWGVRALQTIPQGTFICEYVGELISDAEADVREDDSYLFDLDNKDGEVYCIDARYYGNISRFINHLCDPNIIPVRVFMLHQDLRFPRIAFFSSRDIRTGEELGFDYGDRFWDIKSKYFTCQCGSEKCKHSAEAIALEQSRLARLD
The experiment is described as follows: EHMT2 enzyme assay on histone peptide substrate (EHMT2 PEP). Format: biochemical. In a few lines:
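Radiometric methyltransferase assay: 0.031 nM EHMT2 913-1193 preincubated 30 min with compound (10-point 3-fold series, top final 50 μM, 2% DMSO) in 20 mM Bicine pH 7.5, 1 mM TCEP. Biotinylated histone peptide methylated with ^3H-SAM for 60 min at room temperature, quenched with unlabeled SAM, captured on streptavidin Flashplates and counted.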

Experiment [2] has as its target T2, EHMT1 (Homo sapiens, UniProt Q9H9B1).
T2 sequence (Q9H9B1 1-1298): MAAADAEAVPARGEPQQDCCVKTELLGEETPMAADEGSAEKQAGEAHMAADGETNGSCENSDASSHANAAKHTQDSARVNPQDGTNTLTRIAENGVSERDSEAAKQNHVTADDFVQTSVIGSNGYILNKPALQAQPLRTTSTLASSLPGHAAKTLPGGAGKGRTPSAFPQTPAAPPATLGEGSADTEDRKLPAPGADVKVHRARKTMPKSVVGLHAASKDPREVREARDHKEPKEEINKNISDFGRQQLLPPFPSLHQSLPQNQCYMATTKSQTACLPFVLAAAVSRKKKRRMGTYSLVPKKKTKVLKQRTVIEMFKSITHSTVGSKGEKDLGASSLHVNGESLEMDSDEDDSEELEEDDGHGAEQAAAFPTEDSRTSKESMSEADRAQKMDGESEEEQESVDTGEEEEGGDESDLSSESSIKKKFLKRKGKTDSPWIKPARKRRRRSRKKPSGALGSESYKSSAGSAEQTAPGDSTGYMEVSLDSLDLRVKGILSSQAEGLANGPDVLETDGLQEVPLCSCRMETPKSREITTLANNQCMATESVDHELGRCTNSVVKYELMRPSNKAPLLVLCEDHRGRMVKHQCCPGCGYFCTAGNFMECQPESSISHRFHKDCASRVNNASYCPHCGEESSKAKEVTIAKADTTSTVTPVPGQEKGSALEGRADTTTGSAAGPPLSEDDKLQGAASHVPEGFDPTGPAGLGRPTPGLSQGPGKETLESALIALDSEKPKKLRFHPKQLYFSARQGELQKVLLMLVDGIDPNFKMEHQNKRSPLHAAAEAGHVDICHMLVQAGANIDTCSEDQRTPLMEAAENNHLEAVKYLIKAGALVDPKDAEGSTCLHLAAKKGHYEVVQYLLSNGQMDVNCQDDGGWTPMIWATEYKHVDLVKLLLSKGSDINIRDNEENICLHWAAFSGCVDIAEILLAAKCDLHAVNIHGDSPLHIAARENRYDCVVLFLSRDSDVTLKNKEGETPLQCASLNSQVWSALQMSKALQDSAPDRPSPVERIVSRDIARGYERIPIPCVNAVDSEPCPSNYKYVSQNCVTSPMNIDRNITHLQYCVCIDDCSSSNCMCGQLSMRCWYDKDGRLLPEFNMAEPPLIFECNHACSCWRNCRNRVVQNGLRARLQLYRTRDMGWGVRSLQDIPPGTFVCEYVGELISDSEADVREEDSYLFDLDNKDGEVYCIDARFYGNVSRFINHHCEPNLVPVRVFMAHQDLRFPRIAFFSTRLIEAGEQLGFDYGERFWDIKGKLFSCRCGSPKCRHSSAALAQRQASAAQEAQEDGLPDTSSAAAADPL
Description: EHMT1 enzyme assay on peptide substrate (EHMT1 PEP). Format: biochemical.

[3] abbreviates: Table VII, read-out: EHMT2 PEP IC50.
The mark [4] stands for this setting: Table VII, read-out: EHMT1 PEP IC50.
Setting [5] is: recombinant human EHMT2 913-1193, histone H3 1-15 peptide, balanced conditions, read-out: EHMT2 PEP (IC50 μM).

Like-named read-outs stand apart in the source and are kept apart here. Bounds are passed on as bounds.

As usually defined, the IC50 is the concentration at which inhibition is half-maximal. Regarding `CCN(C)C[C@@H](O)COc1cc(Nc2nc(C)cc(NC)n2)ccc1OC` [Compound 1113], the results for the IC50 in experiment [1] (setting [3]) and in experiment [2] (setting [4]) were 0.1 to 1 µM and below 0.1 µM, respectively.

As for `CNc1nc(C2CCN(C(C)C)CC2)c2cc(OC)c(OC[C@@H]3CCN(C4CC4)C3)cc2n1` [Compound 526], the IC50 in experiment [1] (setting [5]) and in experiment [2] (read-out: EHMT1 PEP (IC50 μM)) was below 0.1 µM throughout.

With `CNc1cc(C)nc(Nc2ccc(OC)c(OCCCN3CCCC3C)c2)n1` (centres unmarked) [Compound 504, N^2-(4-methoxy-3-(3-(2-methylpyrrolidin-1-yl)propoxy)phenyl)-N^4,6-dimethylpyrimidine-2,4-diamine], the IC50 in experiment [1] (setting [5]) and in experiment [2] (read-out: EHMT1 PEP (IC50 μM)) was 0.1 to 1 µM in each case.

With `COc1cc2c(C3CCN(C)CC3)nc(N3CCCC3)nc2cc1OCCCN1CCCC1` [Compound 527], the IC50 in experiment [1] (setting [5]) and in experiment [2] (read-out: EHMT1 PEP (IC50 μM)) was below 0.1 µM each time.

Regarding `CNc1cc(C2CCCC2)nc(Nc2ccc(OC)c(OCCCN3CCCC3)c2)n1` [Compound 458, 6-cyclopentyl-N^2-(4-methoxy-3-(3-(pyrrolidin-1-yl)propoxy)phenyl)-N^4-methylpyrimidine-2,4-diamine], the IC50 in experiment [1] (setting [5]) and in experiment [2] (read-out: EHMT1 PEP (IC50 μM)) was 0.1 to 1 µM throughout.

Regarding `CNc1cc(C)nc(Nc2ccc(OC)c(OCC3CCN(C4CCCC4)C3)c2)n1` (centres unmarked) [Compound 456, N^2-(3-((1-cyclopentylpyrrolidin-3-yl)methoxy)-4-methoxyphenyl)-N^4,6-dimethylpyrimidine-2,4-diamine], the IC50 in experiment [1] (setting [5]) and in experiment [2] (read-out: EHMT1 PEP (IC50 μM)) was 1 to 10 µM each time.

As for `CNc1cc(C)nc(Nc2ccc(OC)c(OC[C@H](O)CN3CCCC3)c2)n1` [Compound 1045], the IC50 in experiment [1] (setting [3]) and in experiment [2] (setting [4]) was below 0.1 µM in each case.

The record behind these values is patent US20210198277A1, “AMINE-SUBSTITUTED ARYL OR HETEROARYL COMPOUNDS” (Epizyme, Inc., priority 2016, published 2021).
